Reference: publication PMC6337631, “Effective Tetradentate Compound Complexes against Leishmania spp. that Act on Critical Enzymatic Pathways of These Parasites” (Molecules, 2018)

Key:
[1] = test system: L. braziliensis promastigotes; test: Ultrastructural alterations by TEM, L. braziliensis; type: cell-based, Leishmania braziliensis; details: 72 h at IC25 concentration
Experimental: (§1) Parasites were cultured at a density of 5 × 10^5 cells/mL with medium containing the tested compounds at IC25 concentrations. After 72 h at 28 °C, the cultures were processed using a technique previously described and analysed by TEM (LIBRA 120 PLUS, Zeiss, Barcelona, Spain).

[2] = test system: Leishmania braziliensis promastigote forms; test: Promastigote test (extracellular forms), L. braziliensis; type: cell-based; details: Leishmania braziliensis; 72 h; 100 µM to 1 µM; mean ± SD
Experimental: (§2) Promastigote forms of three different Leishmania spp., L. donovani (MHOM/PE/84/LC26), L. infantum (MCAN/ES/2001/UCM-10) and L. braziliensis (MHOM/BR/1975/M2904), were cultured in vitro in Medium Trypanosomes Liquid (MTL) supplemented with 10% inactivated foetal calf serum (FCS) in an air atmosphere at 28 °C, in Roux flasks (Corning, Manassas, VA, USA) with a surface area of 75 cm^2, according to [33].
(§3) The compounds and the reference drug Glu were dissolved in DMSO (Panreac, Barcelona, Spain) and tested from 100 µM to 1 µM with 0.1% (v/v) DMSO final concentration in plates. Therefore, controls were prepared including 0.1% (v/v) of this component, as previously described.
(§4) Promastigote forms were collected in the exponential growth phase and seeded at 1 × 10^5 parasites/mL in 24-well microplates (Nunc, Naperville, IL, USA), after adding each compound at concentrations from 100 µM to 1 µM and cultured in 500 μL/well volumes at 28 °C. After 72 h incubation, the leishmanicidal activity was assessed using a Neubauer haemocytometric chamber in comparison with the control cultures. […] Each drug concentration was tested in triplicate in four separate determinations.

[3] = test system: Leishmania braziliensis amastigote forms; test: Amastigote test (intracellular forms in J774.2 macrophages), L. braziliensis; type: cell-based; details: Leishmania braziliensis, 72 h, mean ± SD
Experimental: as §2, §3
(§5) J774.2 macrophages were grown and seeded at a density of 1 × 10^4 cells/well in 24-well microplates (Nunc) with rounded coverslips on the bottom and cultured for 48 h in humidified 95% air, 5% CO2 atmosphere at 37 °C in Minimal Essential Medium (MEM) with 2 mM glutamine and 20% (v/v) inactivated FCS. Adherent macrophages were infected with metacyclic promastigotes in the stationary growth phase of L. donovani, L. infantum and L. braziliensis at a multiplicity of infection (MOI) ratio of 1:10 and maintained for 24 h. Non-phagocytosed parasites were removed by washing, and after addition of the testing compounds at concentrations from 100 µM to 1 µM, cultured in 500 μL/well volumes. Control cultures were also included. After 72 h incubation, leishmanicidal activity was assessed based on the number of amastigotes in treated and untreated cultures in methanol-fixed and Giemsa-stained preparations by analyzing 500 host cells distributed in randomly chosen microscopic fields. The leishmanicidal effect was calculated as described to determine the leishmanicidal activity in the promastigote forms. Each drug concentration was tested in triplicate in four separate determinations.

[4] = test system: L. infantum promastigotes; test: Ultrastructural alterations by TEM, L. infantum; type: cell-based, Leishmania infantum; details: 72 h at IC25 concentration
Experimental: as §1

[5] = test system: Leishmania donovani infection of J774.2 macrophages; test: Infectivity assay, L. donovani; type: cell-based; details: IC25 concentration
Experimental: After the initial in vitro studies we were interested in finding out if the six most leishmanicidal compounds could also prevent the infection of host cells. For this reason, we conducted an assay in which the J774.2 macrophages were exposed to the metacyclic promastigotes and the compound at IC25 concentration at the same time. The propagation of the parasitic infection was determined by measuring the infection rate and the average number of amastigotes per macrophage cell present during the 10-day treatment period. In addition, the endocytic (short-time of infection) and infection (long-time of infection) indexes were calculated.
Adherent macrophages were grown, seeded and infected with metacyclic promastigotes as mentioned above. The compounds at IC25 concentrations (calculated using linear regression analysis from the Kc values of the concentrations employed) were added immediately after infection and incubation was performed for 12 h at 37 °C in humidified 95% air, 5% CO2 atmosphere. in humidified 95% air, 5% CO2 atmosphere at 37 °C Non-phagocytosed parasites and drugs were removed by washing, and then the infected cultures were grown for 10 days, adding fresh culture medium every 48 h, according to [35]. Amastigotes per macrophage count was determined in methanol-fixed and Giemsa-stained preparations as mentioned above every 48 h. The infection rate (defined as the percentage of infected cells), the average number of amastigotes per macrophage, and the endocytic and infection indexes (calculated by multiplying the infection rate by the average number of amastigotes per macrophage) were determined. Each drug concentration was tested in triplicate in four separate determinations.

[6] = test system: Leishmania infantum promastigote forms; test: Promastigote test (extracellular forms), L. infantum; type: cell-based; details: Leishmania infantum; 72 h; 100 µM to 1 µM; mean ± SD of four determinations
Experimental: as §2, §3, §4

[7] = test system: Leishmania infantum amastigote forms; test: Amastigote test (intracellular forms in J774.2 macrophages), L. infantum; type: cell-based; details: Leishmania infantum, 72 h, mean ± SD
Experimental: as §2, §3, §5

[8] = test system: J774.2 murine macrophages; test: Cytotoxicity test on macrophages by flow cytometry; type: cell-based, mouse; details: Mus musculus, J774.2 macrophages, 72 h, read-out: Toxicity IC50 Macrophage
Experimental: as §3
The macrophage line J774.2 [European collection of cell cultures (ECACC) number 91051511] was derived in 1968 from a tumour in a female BALB/c mouse. Macrophages were grown in humidified 95% air, 5% CO2 atmosphere at 37 °C in Minimal Essential Medium (MEM) with 2 mM glutamine and 20% (v/v) inactivated FCS. The cytotoxicity test on macrophages was performed by Flow cytometry analysis according to a method previously described. Briefly, cells were seeded at a density of 5 × 10^4 cells/well in 24-well microplates (Nunc, Naperville, IL, USA). After 48 h incubation, the medium was removed, and fresh medium was added together with each test compound at concentrations from 100 µM to 1 µM and cultured in 500 μL/well volumes for 72 h. Thereafter, cells were recovered by centrifugation, and cell viability was determined by Flow cytometry (FACS Vantage flow cytometer, Becton Dickinson, San Jose, CA, USA) after incubating the cells with propidium iodide ([…]) and fluorescein diacetate (100 ng/mL). The percentage of viability was calculated in comparison with the control cultures. […] Each drug concentration was tested in triplicate in four separate determinations.

[9] = test system: Leishmania donovani promastigote forms; test: Promastigote test (extracellular forms), L. donovani; type: cell-based; details: Leishmania donovani; 72 h; 100 µM to 1 µM; mean ± SD
Experimental: as §2, §3, §4

[10] = last day of the experiment (day 10)

SMILES: CN(C)c1ccnc(CN2CCC[C@H]2[C@@H]2CCCN2Cc2cc(N(C)C)ccn2)c1 [Compound 7]
- ultrastructural alterations of L. braziliensis promastigotes (TEM) [1]: damaged, swollen, and full of vacuoles
- IC50 [2]: 11.7 ± 0.8 µM
- IC50 [3]: 8.5 ± 0.3 µM
- ultrastructural alterations of L. infantum promastigotes (TEM) [4]: most destructive compounds
- day at which the decline in the infection rate appeared, L. donovani ([5]; 10-day infectivity assay): 2 days
- percentage of decrease in infection rate in comparison to the control, L. donovani [5, 10]: 88%
- percentage of decrease in number of amastigotes per macrophage cell in comparison to the control, L. donovani [5, 10]: 74%
- IC50 [6]: 12.3 ± 2.2 µM
- IC50 [7]: 9 ± 0.4 µM
- IC50 [8]: 172 ± 11.3 µM
- IC50 [9]: 8.1 ± 3.9 µM
